In ChEMBL document CHEMBL1150968, “Debromosceptrin, an alkaloid from the Caribbean sponge Agelas conifera” (1998) one finds Activity data, which are given here for five compounds.

Active and inactive are the calls of the source. The rule behind the calls is not given here.

The test system of test [1] is Human immunodeficiency virus. The test is described as follows: Antiviral activity against HIV. Type of test: functional, organism-based.
The test system of test [2] is Mycobacterium tuberculosis. Kind of test: Antimycobacterial activity against Mycobacterium tuberculosis at 12.5 ug/ml. Type of test: functional.

Regarding `Nc1nc([C@H]2[C@H](CNC(=O)c3cc(Br)c[nH]3)[C@@H](CNC(=O)c3cc(Br)c[nH]3)[C@@H]2c2c[nH]c(N)n2)c[nH]1`, in test [1], the outcome was inactive.

With `Nc1nc([C@H]2[C@H](CNC(=O)c3ccc[nH]3)[C@@H](CNC(=O)c3cc(Br)c[nH]3)[C@@H]2c2c[nH]c(N)n2)c[nH]1`, the outcome in test [1] was inactive.

In turn, `Cl.Cl.Nc1ncc([C@H]2[C@H](CNC(=O)c3ccc[nH]3)[C@@H](CNC(=O)c3cc(Br)c[nH]3)[C@@H]2c2cnc(N)[nH]2)[nH]1` [MONOBROMOSCEPTRIN] yielded an Activity in test [2] of 35%.

In test [2], `Cl.Cl.Nc1ncc([C@H]2[C@H](CNC(=O)c3cc(Br)c[nH]3)[C@@H](CNC(=O)c3cc(Br)c[nH]3)[C@@H]2c2cnc(N)[nH]2)[nH]1` [SCEPTRIN HYDROCHLORIDE] gave an Activity of 14%.

For `Nc1ncc([C@H]2[C@H](CNC(=O)c3ccc[nH]3)[C@@H](CNC(=O)c3ccc[nH]3)[C@@H]2c2cnc(N)[nH]2)[nH]1`, in test [1], the result was inactive.
